One series concerns patients with HRPC. Particulars: docetaxel-treated patients, reference randomized study; cited from earlier work.
The next series has as its system PC3 cells. The series is described as follows: PC3 survival at end of treatment. Type of series: cell-based, human. As to conditions: 2 h 3.75 μM DTX then 70 h drug-free medium, with or without 2 days of repeated 0.25 μM curcumin pretreatment. As to the method: The PC3 line is a human p-53 defective HRPC line displaying high SphK1 activity. To mimic the effect of treatment, 10,000 PC3 cells were seeded in each well of 24-well plates and maintained in DMEM containing 10% FBS (complete medium) overnight. […] Indeed, in these experiences PC3 cells were treated the first day for 2 h at 7 h AM and maintained in DFM until 12 h AM (5h). […] As previously, the cells were maintained in DFM for 70 h in DFM after DTX treatment.
PC3 survival was determined at the end of treatment 1 and 3. Telomerase activity was determined in survived cells by Trap assay at the end of treatment 1, 2 and 3.

Series [1] can be described thus: Blood levels after administration. As to conditions: human. Type of series: in vivo. As to the method: It was deduced from the investigator data that 1 h after administration of 75 mg/m2 of DTX, blood levels of DTX can reach 3.75 μM.

Where two headings read alike, the source gives them in different places.

In the case of `CC(=O)O[C@@]12CO[C@@H]1C[C@H](O)[C@@]1(C)C(=O)[C@H](O)C3=C(C)[C@@H](OC(=O)[C@H](O)[C@@H](NC(=O)OC(C)(C)C)c4ccccc4)C[C@@](O)([C@@H](OC(=O)c4ccccc4)[C@H]21)C3(C)C` [Docetaxel, (2R,3S)-N-carboxy-3-phenylisoserine, N-tert-butyl ester, 13-ester with 5, 20-epoxy-1,2,4,7, 10, 13-hexahydroxytax-11-en-9-one 4-acetate 2-benzoate, trihydrate], in the series on patients with HRPC, the PSA response is reported as 45% and the objective tumor response is 12%. Moreover, the “number of survived cells” value with PC3 cells came out at 90±5%. For the same molecule, the concentration at 1 h in series [1] (blood, intravenous, 1 h after administration of 75 mg/m2, deduced from the investigator data, read-out: blood levels of DTX) was 3750 nM.
In series [1] (in vivo), `COc1cc(/C=C/C(=O)CC(=O)/C=C/c2ccc(O)c(OC)c2)ccc1O` [curcumin, (1E,6E)-1,7-bis (4-hydroxy-3-methoxyphenyl)-1,6-heptadiene-3 ,5-dione] returned a concentration at 1 h of 100 to 450 nM.
